Experimental data: patent US20250340538A1, “IMIDAZOLONE DERIVATIVES AS INHIBITORS OF PROTEIN KINASES IN PARTICULAR DYRK1A, CLK1 AND/OR CLK4” (PERHA PHARMACEUTICALS, priority 2021, published 2025)
Where two headings read alike, the source gives them in different places.

What was measured:
Type in all cases: biochemical
[1] = target: T1, CLK1 (Homo sapiens, UniProt P49759); test: Radiometric protein kinase assay (33PanQinase Activity Assay), CLK1
T1 construct: GST-fusion or His-tag (not specified per kinase); purchased ProQinase GmbH; host or cells: Sf9 insect cells or E. coli (not specified per kinase)
T1 sequence (P49759 whole entry, the tested form may be a part): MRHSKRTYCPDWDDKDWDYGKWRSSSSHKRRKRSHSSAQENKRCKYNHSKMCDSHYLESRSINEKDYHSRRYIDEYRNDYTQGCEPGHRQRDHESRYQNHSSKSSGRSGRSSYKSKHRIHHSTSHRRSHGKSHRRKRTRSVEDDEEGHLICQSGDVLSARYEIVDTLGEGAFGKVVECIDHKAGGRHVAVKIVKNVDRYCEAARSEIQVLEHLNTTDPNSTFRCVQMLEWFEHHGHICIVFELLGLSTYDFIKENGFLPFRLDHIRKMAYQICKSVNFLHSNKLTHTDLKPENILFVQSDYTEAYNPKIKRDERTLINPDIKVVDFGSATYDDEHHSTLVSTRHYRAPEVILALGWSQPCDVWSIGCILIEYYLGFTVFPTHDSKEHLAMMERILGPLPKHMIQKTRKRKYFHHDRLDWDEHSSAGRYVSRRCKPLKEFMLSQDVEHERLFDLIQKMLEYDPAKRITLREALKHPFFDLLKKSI
Procedure, shortened: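 Recombinant human kinases (GST- or His-tagged, full-length or active fragments, from Sf9 or E. coli) were run in the radiometric 33PanQinase assay with [γ-33P]-ATP. Compounds were tested at 10 concentrations from 10 μM to 30 nM in 1% DMSO, incubated 60 min at 30 °C, and IC50 derived from dose-response curves.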

[2] = target: T2, DYRK2 (Homo sapiens, UniProt Q92630); test: Radiometric protein kinase assay (33PanQinase Activity Assay), DYRK2; settings: read-out: IC50 on DYRK2 (most potent DYRK2 inhibitors)
T2 construct: GST-fusion or His-tag (not specified per kinase); purchased ProQinase GmbH; host or cells: Sf9 insect cells or E. coli (not specified per kinase)
T2 sequence (Q92630 1-601): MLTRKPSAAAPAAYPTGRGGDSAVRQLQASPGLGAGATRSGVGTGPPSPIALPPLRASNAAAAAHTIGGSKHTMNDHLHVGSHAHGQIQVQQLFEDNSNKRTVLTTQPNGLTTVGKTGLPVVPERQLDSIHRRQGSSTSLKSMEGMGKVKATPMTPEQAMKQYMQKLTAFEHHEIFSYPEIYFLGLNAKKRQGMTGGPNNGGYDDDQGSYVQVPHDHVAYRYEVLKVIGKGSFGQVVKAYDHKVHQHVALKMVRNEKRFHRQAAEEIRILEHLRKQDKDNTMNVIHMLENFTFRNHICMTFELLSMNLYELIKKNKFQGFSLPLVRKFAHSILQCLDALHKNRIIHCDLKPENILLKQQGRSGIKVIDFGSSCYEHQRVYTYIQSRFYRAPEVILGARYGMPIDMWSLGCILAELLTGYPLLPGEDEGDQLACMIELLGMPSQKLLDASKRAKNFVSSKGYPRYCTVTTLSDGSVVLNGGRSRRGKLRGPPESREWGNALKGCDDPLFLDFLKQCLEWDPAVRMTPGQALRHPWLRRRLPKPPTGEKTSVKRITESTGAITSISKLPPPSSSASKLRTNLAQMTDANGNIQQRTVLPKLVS
Procedure: (§1) Assays were performed by ProQinase GmbH (Engesserstr. 4, D-79108 Freiburg, Germany. www.proqinase.com). The IC50 profile of all compounds was determined using 12 protein kinases (CDK2/cyclin E, CK1ε, CLK1, 2, 3, 4, DYRK1A, 1B, 2, 3, 4, GSK3β).
(§2) The compounds were provided as […] in 100% DMSO. Prior to testing, the 1 μM stock solutions were subjected to a serial, semi-logarithmic dilution using 100% DMSO as a solvent. […] In the process, 90 μl H2O were added to each well of each compound dilution plate. To minimize potential precipitation, the H2O was added to each plate only a few minutes before the transfer of the compound solutions into the assay plates. The plate was shaken thoroughly, resulting in a compound dilution plate/10% DMSO.
(§3) For the assays (see below), 5 μL solution from each well of the compound dilution plates/10% DMSO were transferred into the assay plates. The final volume of the assay was 50 μL. All compounds were tested at 10 final assay concentrations in the range from 10 μM to 30 nM. The final DMSO concentration in the reaction cocktails was 1% in all cases.
(§4) All protein kinases provided by ProQinase were expressed in Sf9 insect cells or in E. coli as recombinant GST-fusion proteins or His-tagged proteins, either as full-length or enzymatically active fragments. All kinases were produced from human cDNAs and purified by either GSH-affinity chromatography or immobilized metal. Affinity tags were removed from a number of kinases during purification. The purity of the protein kinases was examined by SDS-PAGE/Coomassie staining, the identity was checked by mass spectroscopy.
(§5) A radiometric protein kinase assay (33PanQinase® Activity Assay) was used for measuring the kinase activity of the 12 protein kinases. All kinase assays were performed in 96-well FlashPlates™ from PerkinElmer (Boston, MA, USA) in a 50 μL reaction volume. The reaction cocktail was pipetted in four steps in the following order: • 25 μL of assay buffer (standard buffer/[γ-^33P]-ATP), • 10 μL of ATP solution (in H2O), • 5 μL of test compound (in 10% DMSO), • 10 μL of enzyme/substrate mixture.
(§6) The reaction cocktails were incubated at 30° C. for 60 minutes. The reaction was stopped with 50 μL of 2% (v/v) H3PO4, plates were aspirated and washed two times with 200 μL 0.9% (w/v) NaCl. Incorporation of ^33Pi was determined with a microplate scintillation counter (Microbeta, Wallac). The IC50 values for all compounds were calculated from the dose response curves
(§7) As a parameter for assay quality, the Z′-factor (Zhang et al., J. Biomol. Screen. 2: 67-73, 1999) for the low and high controls of each assay plate (n=8) was used. ProQinase's criterion for repetition of an assay plate is a Z′-factor below 0.4 (Iversen et al., J. Biomol. Screen. 3: 247-252, 2006).

[3] = target: T3, DYRK3 (Homo sapiens, UniProt O43781); test: Radiometric protein kinase assay (33PanQinase Activity Assay), DYRK3; settings: read-out: IC50 on DYRK3 (most potent DYRK3 inhibitors)
T3 construct: GST-fusion or His-tag (not specified per kinase); purchased ProQinase GmbH; host or cells: Sf9 insect cells or E. coli (not specified per kinase)
T3 sequence (O43781 1-588): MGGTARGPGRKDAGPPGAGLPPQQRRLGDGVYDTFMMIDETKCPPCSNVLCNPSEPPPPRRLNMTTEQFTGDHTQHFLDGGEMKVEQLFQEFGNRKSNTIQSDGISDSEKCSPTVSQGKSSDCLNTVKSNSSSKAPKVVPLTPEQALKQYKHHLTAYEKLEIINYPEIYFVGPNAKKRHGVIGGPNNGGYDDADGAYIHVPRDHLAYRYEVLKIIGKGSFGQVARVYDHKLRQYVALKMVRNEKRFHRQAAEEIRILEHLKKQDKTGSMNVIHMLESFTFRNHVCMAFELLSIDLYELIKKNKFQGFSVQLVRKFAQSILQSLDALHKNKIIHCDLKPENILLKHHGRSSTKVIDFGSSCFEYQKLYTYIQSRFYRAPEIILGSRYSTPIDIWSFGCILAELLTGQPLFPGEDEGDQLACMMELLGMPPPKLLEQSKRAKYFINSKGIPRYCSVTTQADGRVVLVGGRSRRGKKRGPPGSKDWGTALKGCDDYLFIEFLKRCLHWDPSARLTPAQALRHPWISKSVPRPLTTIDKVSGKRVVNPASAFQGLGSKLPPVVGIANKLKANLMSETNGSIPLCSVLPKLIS
Procedure: as §1, §2, §3, §4, §5, §6, §7

[4] = target: T4, DYRK1B (Homo sapiens, UniProt Q9Y463); test: Radiometric protein kinase assay (33PanQinase Activity Assay), DYRK1B; settings: read-out: IC50 on DYRK1B (most potent DYRK1B inhibitors)
T4 construct: GST-fusion or His-tag (not specified per kinase); purchased ProQinase GmbH; host or cells: Sf9 insect cells or E. coli (not specified per kinase)
T4 sequence (Q9Y463 whole entry, the tested form may be a part): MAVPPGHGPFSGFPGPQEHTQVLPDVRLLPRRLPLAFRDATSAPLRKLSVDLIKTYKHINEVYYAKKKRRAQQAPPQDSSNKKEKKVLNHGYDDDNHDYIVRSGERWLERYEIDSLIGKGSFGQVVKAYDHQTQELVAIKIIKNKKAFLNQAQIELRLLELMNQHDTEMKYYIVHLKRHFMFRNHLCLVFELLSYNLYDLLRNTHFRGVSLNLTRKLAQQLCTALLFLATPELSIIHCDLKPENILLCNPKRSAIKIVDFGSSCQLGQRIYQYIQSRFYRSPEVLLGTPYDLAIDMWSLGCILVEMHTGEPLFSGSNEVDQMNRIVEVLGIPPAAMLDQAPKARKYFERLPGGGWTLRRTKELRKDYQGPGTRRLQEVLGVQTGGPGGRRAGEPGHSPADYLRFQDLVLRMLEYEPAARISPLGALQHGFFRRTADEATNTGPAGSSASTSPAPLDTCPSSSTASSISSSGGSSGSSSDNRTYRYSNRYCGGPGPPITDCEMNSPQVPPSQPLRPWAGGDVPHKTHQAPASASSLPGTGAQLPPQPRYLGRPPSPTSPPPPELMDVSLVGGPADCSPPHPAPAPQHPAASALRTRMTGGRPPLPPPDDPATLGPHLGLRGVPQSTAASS
Procedure: as §1, §2, §3, §4, §5, §6, §7

[5] = target: T5, CLK4 (Homo sapiens, UniProt Q9HAZ1); test: Radiometric protein kinase assay (33PanQinase Activity Assay), CLK4; settings: read-out: IC50 on CLK4 (most potent CLK4 inhibitors)
T5 construct: GST-fusion or His-tag (not specified per kinase); purchased ProQinase GmbH; host or cells: Sf9 insect cells or E. coli (not specified per kinase)
T5 sequence (Q9HAZ1 whole entry, the tested form may be a part): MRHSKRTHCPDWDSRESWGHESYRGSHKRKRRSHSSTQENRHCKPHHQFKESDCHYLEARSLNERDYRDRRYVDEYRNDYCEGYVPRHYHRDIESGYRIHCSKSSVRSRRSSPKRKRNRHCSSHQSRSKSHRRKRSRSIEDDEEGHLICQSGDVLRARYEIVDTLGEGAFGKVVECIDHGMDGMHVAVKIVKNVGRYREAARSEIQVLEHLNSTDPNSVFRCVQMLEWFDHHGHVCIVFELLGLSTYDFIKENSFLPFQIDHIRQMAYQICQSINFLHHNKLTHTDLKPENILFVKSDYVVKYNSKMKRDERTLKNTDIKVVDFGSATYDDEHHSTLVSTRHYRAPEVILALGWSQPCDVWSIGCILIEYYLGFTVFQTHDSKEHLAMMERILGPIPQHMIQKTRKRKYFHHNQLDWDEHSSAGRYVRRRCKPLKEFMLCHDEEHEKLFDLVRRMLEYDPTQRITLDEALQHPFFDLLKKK
Procedure: as §1, §2, §3, §4, §5, §6, §7

[6] = target: T6, DYRK1A (Homo sapiens, UniProt Q13627); test: Radiometric protein kinase assay (33PanQinase Activity Assay), DYRK1A; settings: for Selectivity Class DYRK1A vs. CLK1: ratio of IC50 on CLK1 over IC50 on DYRK1A; for Selectivity Class DYRK1A vs. DYRK1B: ratio of IC50 on DYRK1B over IC50 on DYRK1A
T6 construct: GST-fusion or His-tag (not specified per kinase); purchased ProQinase GmbH; host or cells: Sf9 insect cells or E. coli (not specified per kinase)
Procedure, shortened: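 Recombinant human kinase, expressed in Sf9 or E. coli, in a radiometric [γ-33P]-ATP assay at 30 °C for 60 min. Compounds tested at 10 concentrations from 10 μM to 30 nM, 1% DMSO final. 33Pi incorporation measured by scintillation counting; IC50 from dose-response curves.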

[7] = target: T7, CLK2 (Homo sapiens, UniProt P49760); test: Radiometric protein kinase assay (33PanQinase Activity Assay), CLK2; settings: read-out: IC50 on CLK2 (most potent CLK2 inhibitors)
T7 construct: GST-fusion or His-tag (not specified per kinase); purchased ProQinase GmbH; host or cells: Sf9 insect cells or E. coli (not specified per kinase)
T7 sequence (P49760 whole entry, the tested form may be a part): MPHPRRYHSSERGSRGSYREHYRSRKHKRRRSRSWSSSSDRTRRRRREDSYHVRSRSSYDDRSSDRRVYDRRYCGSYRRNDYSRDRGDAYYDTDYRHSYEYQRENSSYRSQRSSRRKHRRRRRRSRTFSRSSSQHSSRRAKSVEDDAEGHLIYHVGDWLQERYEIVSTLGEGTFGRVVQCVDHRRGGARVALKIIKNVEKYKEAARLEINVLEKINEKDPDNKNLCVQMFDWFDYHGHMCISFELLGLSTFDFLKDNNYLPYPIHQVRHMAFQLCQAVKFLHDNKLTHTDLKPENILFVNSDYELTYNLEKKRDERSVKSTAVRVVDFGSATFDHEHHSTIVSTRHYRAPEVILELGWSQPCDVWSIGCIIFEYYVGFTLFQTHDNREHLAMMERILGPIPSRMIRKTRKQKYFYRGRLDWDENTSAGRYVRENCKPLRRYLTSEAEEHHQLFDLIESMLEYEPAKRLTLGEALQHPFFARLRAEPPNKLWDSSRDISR
Procedure: as §1, §2, §3, §4, §5, §6, §7

[8] = target: T8, CLK3 (Homo sapiens, UniProt P49761); test: Radiometric protein kinase assay (33PanQinase Activity Assay), CLK3; settings: read-out: IC50 on CLK3 (most potent CLK3 inhibitors)
T8 construct: GST-fusion or His-tag (not specified per kinase); purchased ProQinase GmbH; host or cells: Sf9 insect cells or E. coli (not specified per kinase)
T8 sequence (P49761 whole entry, the tested form may be a part): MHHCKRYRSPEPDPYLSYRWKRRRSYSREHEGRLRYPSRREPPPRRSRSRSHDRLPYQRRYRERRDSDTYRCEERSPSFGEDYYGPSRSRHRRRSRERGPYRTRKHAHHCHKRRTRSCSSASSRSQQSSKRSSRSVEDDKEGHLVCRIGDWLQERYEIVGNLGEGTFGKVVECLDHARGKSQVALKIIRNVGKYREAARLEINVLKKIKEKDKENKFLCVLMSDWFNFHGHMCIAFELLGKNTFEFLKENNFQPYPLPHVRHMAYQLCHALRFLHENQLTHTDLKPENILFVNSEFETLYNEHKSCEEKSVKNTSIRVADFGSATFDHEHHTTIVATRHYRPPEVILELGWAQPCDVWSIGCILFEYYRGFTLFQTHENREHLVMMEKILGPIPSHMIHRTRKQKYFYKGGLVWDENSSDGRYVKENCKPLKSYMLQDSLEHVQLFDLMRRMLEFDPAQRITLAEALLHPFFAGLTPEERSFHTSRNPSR
Procedure: as §1, §2, §3, §4, §5, §6, §7

[9] = IC50 class A to E, read-out: Potency Class CLK1
[10] = class by IC50 on CLK1, from dose-response curves, read-out: Potency Class CLK1
[11] = read-out: IC50 on CLK1 (most potent CLK1 inhibitors)
[12] = IC50 class A to E, read-out: Potency Class DYRK1A
[13] = class by IC50 on DYRK1A, from dose-response curves, read-out: Potency Class DYRK1A
[14] = read-out: IC50 on DYRK1A (most potent DYRK1A inhibitors)

| SMILES | IC50 [1, 9] | IC50 [1, 10] | IC50 [1, 11] | IC50 [2] | IC50 [3] | IC50 [4] | IC50 [5] | IC50 [6, 12] | IC50 [6, 13] | Selectivity Class DYRK1A vs. CLK1 [6] | Selectivity Class DYRK1A vs. DYRK1B [6] | IC50 [6, 14] | IC50 [7] | IC50 [8] |
| --- | --- | --- | --- | --- | --- | --- | --- | --- | --- | --- | --- | --- | --- | --- |
| O=C1NC(NC23CC4CC(CC(F)(C4)C2)C3)=N/C1=C\c1ccc2nccnc2c1 [Compound 20, (4Z)-2-[(3-fluoro-1-adamantyl)amino]-4-(quinoxalin-6-ylmethylene)-1H-imidazol-5-one] | 10 to 25 nM | 10 to 25 nM | ≤ 10 nM | ≤ 250 nM | ≤ 250 nM | ≤ 10 nM | ≤ 10 nM | ≤ 5 nM | < 5 nM | II (ratio between 2 and 10 fold) | III (ratio between 0.5 and 2 fold) | ≤ 10 nM | ≤ 100 nM |  |
| COC[C@H](NC1=N/C(=C\c2ccc3ncncc3c2)C(=O)N1)c1ccccc1 [Compound 69, (4Z)-2-[[(1R)-2-methoxy-1-phenyl-ethyl]amino]-4-(quinazolin-6-ylmethylene)-1H-imidazol-5-one] | 10 to 25 nM | 10 to 25 nM |  | ≤ 250 nM | ≤ 250 nM | ≤ 10 nM | ≤ 10 nM | ≤ 5 nM | < 5 nM | II (ratio between 2 and 10 fold) | II (ratio between 2 and 10 fold) | ≤ 10 nM | ≤ 100 nM |  |
| O=C1NC(NC23CC4CC(CC(C4)C2)C3)=N/C1=C\c1ccc2ncccc2n1 [Compound 70, (4Z)-2-(1-adamantylamino)-4-(1,5-naphthyridin-2-ylmethylene)-1H-imidazol-5-one] | 5 to 10 nM | 5 to 10 nM | ≤ 10 nM |  | ≤ 250 nM | ≤ 10 nM | ≤ 10 nM | ≤ 5 nM | < 5 nM | II (ratio between 2 and 10 fold) | II (ratio between 2 and 10 fold) | ≤ 10 nM | ≤ 100 nM | ≤ 500 nM |
| O=C1NC(NC2CCCCC2)=N/C1=C\c1ccc2ncccc2n1 [Compound 79, (4Z)-2-(cyclohexylamino)-4-(1,5-naphthyridin-2-ylmethylene)-1H-imidazol-5-one] |  | 25 to 50 nM |  |  | ≤ 250 nM |  | ≤ 10 nM |  | 25 to 50 nM | III (ratio between 0.5 and 2 fold) | III (ratio between 0.5 and 2 fold) |  |  | ≤ 500 nM |
| O=C1NC(NC2CCCCCC2)=N/C1=C\c1ccc2ncccc2n1 [Compound 80, (4Z)-2-(cycloheptylamino)-4-(1,5-naphthyridin-2-ylmethylene)-1H-imidazol-5-one] |  | 25 to 50 nM |  |  |  |  |  |  | 10 to 25 nM | III (ratio between 0.5 and 2 fold) | II (ratio between 2 and 10 fold) |  |  | ≤ 500 nM |
| COC[C@@H](CC(C)C)NC1=N/C(=C\c2ccc3ncccc3n2)C(=O)N1 [Compound 81, (4Z)-2-[[(1R)-1-(methoxymethyl)-3-methyl-butyl]amino]-4-(1,5-naphthyridin-2-ylmethylene)-1H-imidazol-5-one] |  | > 50 nM |  |  |  |  |  |  | > 50 nM | III (ratio between 0.5 and 2 fold) | III (ratio between 0.5 and 2 fold) |  |  | ≤ 500 nM |
